Reference: patent US20080221074A1, “Drug Screen and Treatment Method” (priority 2006, published 2008)

Key:
[1] = test system: glucose intolerance in DIO mice; test: diet induced obesity (DIO) mouse hyperglycemia treatment; type: in vivo; details: 20, 40 or 80 mg/kg twice a day up to 28 days
Excerpt: Diet induced obesity (DIO) mouse hyperglycemia treatment. The effect of a drug to enhance peripheral sensitivity to insulin can be studied in a mouse model in which a state of insulin resistance is attained by feeding the animals a fat-enriched diet (60% of total caloric intake) for at least 6 weeks. This model has been described, e.g., J. N. Thupari et al., Proc. Natl. Acad. Sci. USA, 99(14):9498-9502, 2002, H. Xu et al., J. Clin. Invest., 112:1821-1830, 2003, H. Takahashi et al., J. Biol. Chem., 278(47):46654-46660, 2003.
For these studies, animals of approximately […] of age were divided into groups of 10 animals each and then treated with a vehicle control (no drug) or 17α-ethynylandrost-5-ene-3β,7β,17β-triol by oral gavage. The 17α-ethynylandrost-5-ene-3β,7β,17β-triol was administered at 20 mg/kg, 40 mg/kg or 80 mg/kg twice a day for up to 28 days. At day 14 and day 28 during the dosing period an OGTT was performed.

NF-κB = test: kinetic analysis of NF-kB inhibition in vivo after LPS; parameters: species or system mice
Procedure: Kinetic analysis of NF-kB inhibition in vivo. […] The drug was injected 24 hours before intraperitoneal injection of bacterial LPS (about an LD50/24). The study used two groups of 12 animals, vehicle control or drug administered 24 hours before LPS challenge. Spleens were harvested from 3 animals from both groups just before LPS challenge and at 1.5, 2.0 and 2.5 hours after administration of LPS.
Maximum NF-κB activation after LPS administration occurred at 1.5 hours in the vehicle controls, which was 4-fold increased over the pre-LPS level of activated NF-κB. The values for the vehicle control and drug treated animals are relative optical density units from ELISA measurement of NF-κB in nuclei from spleen cells.

estrogen receptor-β = estrogen receptor-β (Homo sapiens, UniProt Q92731); test: interaction with sex hormone receptor; type: binding
[2] = test system: collagen induced arthritis; test: collagen induced arthritis (bCII), Foxp3+ cells and clinical score; type: in vivo, DBA/1Lac/J mice
Procedure: Increase of CD4^+CD25^+ T regulatory cells or their activity in vivo. The compound 17α-ethynylandrost-5-ene-3β,7β,17β-triol was administered to mice essentially as described in a previously described collagen induced arthritis animal model. H. Offner et al., Clin. Immunol., 110:181-190, 2006.
DBA/1Lac/J mice were used for the study. The mice were obtained from Jackson Laboratories (Bar Harbor, Harbor, […].) and housed in accordance with applicable institutional guidelines. Bovine type II collagen (bCII) was used to induce collagen induced arthritis (CIA) by immunizing 8-week-old mice with 200 μg of bCII emulsified 1:1 with CFA containing 200 μg Mycobacterium tuberculosis (100 μL; Difco, Detroit, Mich.). The antigen was injected intradermally at the base of the tail. The animals were monitored for 4-7 weeks to observe the onset and progression of the disease post-immunization. The arthritic severity was evaluated with a grading system for each paw according to the following scale: 0=no redness or swelling; 1=slight swelling in ankle or redness in foot; 2=progressed swelling and inflammation and redness from ankle to mid foot; 3=swelling and inflammation of entire foot; 4=swelling and inflammation of entire foot including toes.
After immunization, the mice were treated with the drug at 40 mg/kg/day in vehicle by oral gavage beginning at the start of observable clinical disease (beginning at about 26-27 days after immunization). The vehicle that was used for the protocol was 30% cyclodextrin-sulfobutylether in water. The cyclodextrin-sulfobutylether was obtained commercially (Captisol™ available at cydexinc.com). The drug formulation was 20 mg drug/mL in the vehicle.

[3] = test system: popliteal lymph node cells; test: reporter antigen popliteal lymph node (PLN) assay; type: in vivo, BALB/C mice
Excerpt: Analysis of immune suppression. Glucocorticoid steroids such as dexamethasone or hydrocortisone are typically immune suppressive and have significant toxicities associated with their use. Immune suppression was examined in a reporter antigen popliteal lymph node assay in mice essentially as previously described (C. Goebel et al., Inflamm. Res., 45(Suppl. 2):S85-S90, 1996; R. Pieters et al., Environmental Health Perspectives 107(Suppl. 5):673-677, 1999). […] In this protocol, the vehicle was 0.1% carboxymethylcellulose, 0.9% saline, 2% tween 80 and 0.05% phenol, which contained 17α-ethynylandrost-5-ene-3β,7β,17β-triol in suspension in drug treated animals. Assessment of activity included (1) measuring suppression of numbers of total lymphocytes, antigen specific IgM, IgG1 and IgG2a antibody secreting cells (ASC) (ELISPOT assay) in popliteal lymph node cells; (2) analysis of cell surface marker (CD4, CD8, CD19, F480, CD80, CD86) expression by flow cytometry of living cells in suspension; and (3) IL-4, TNFα and IFNγ production by lymphocytes in vitro (ELISA).
Groups (n=5 per group) of specific pathogen free BALB/C mice were used. The Positive control group was treated with vehicle (oral gavage) and 5 μg/day dexamethasone by subcutaneous injection to induce immune suppression. Vehicle control animals (negative control) were treated with vehicle alone (oral gavage). One group of animals was treated with 17α-ethynylandrost-5-ene-3β,7β,17β-triol at 0.1 mg/day by oral gavage. Another group was treated with 1 mg/day of 17α-ethynylandrost-5-ene-3β,7β,17β-triol was administered to the animals oral gavage. The results were analyzed by two-tailed Student's t-test with equal variance. The animals were injected in the right hind footpad with 50 μL of freshly prepared sensitizing dose of TNP-OVA. […] Single cell suspensions were prepared, resuspended in 1 mL PBS-BSA (1%) and counted. Cell numbers, IL-4, IL-5 and IFNγ were measured.

Sequence of estrogen receptor-β (Q92731 whole entry, species assumed): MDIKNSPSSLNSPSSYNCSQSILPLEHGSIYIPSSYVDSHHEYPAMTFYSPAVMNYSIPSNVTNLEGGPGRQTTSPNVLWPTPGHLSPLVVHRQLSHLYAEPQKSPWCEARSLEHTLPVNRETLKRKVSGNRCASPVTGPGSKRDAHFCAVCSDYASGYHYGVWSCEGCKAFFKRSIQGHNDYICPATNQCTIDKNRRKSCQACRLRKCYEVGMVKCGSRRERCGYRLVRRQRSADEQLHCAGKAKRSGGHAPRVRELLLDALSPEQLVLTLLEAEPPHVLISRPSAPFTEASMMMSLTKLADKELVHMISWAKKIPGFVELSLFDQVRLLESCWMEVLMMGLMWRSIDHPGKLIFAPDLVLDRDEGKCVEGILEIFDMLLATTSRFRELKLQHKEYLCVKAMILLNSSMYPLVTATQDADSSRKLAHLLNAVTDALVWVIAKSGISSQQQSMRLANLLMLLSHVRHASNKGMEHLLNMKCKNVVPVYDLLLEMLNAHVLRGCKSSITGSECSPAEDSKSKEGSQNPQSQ

## C#C[C@]1(O)CC[C@H]2[C@@H]3[C@@H](O)C=C4C[C@@H](O)CC[C@]4(C)[C@H]3CC[C@@]21C [17α-ethynylandrost-5-ene-3β,7β,17β-triol]
[1]
  glucose intolerance (OGTT glycemic excursion) vs vehicle: notably reduced glucose intolerance
NF-κB; 0 hours (before LPS), about 40 mg/kg i.p. 24 h before LPS
  activated NF-κB in spleen cell nuclei (ELISA): 22 relative optical density units
NF-κB; 1.5 hours after LPS
  activated NF-κB in spleen cell nuclei (ELISA): 2 relative optical density units
NF-κB; 2.0 hours after LPS
  activated NF-κB in spleen cell nuclei (ELISA): 7 relative optical density units
NF-κB; 2.5 hours after LPS
  activated NF-κB in spleen cell nuclei (ELISA): 9 relative optical density units
Estrogen receptor-β
  interaction with estrogen receptor-β: do not interact
[2]; 40 mg/kg/day oral gavage
  Foxp3^+ CD4^+ cells by cell sorter analysis: 1.4%
[2]; day 34 after immunization
  maximum mean clinical score: about 5
[2]; day 49 after immunization
  mean clinical score: about 3
[3]; 0.1 mg/day oral gavage
  average number of lymphocytes in PLNs: 11.1×10^6 per lymph node
[3]; compound 1.0 and 0.1 mg/day, dexamethasone 5 μg/day
  IFNγ, IL-4 and IL-5 levels compared to vehicle control: increased
